Test [1] concerns human platelet rich plasma (PRP). Put plainly: ADP induced platelet aggregation assay. To be noted: Homo sapiens, Platelet, 5 min, read-out: PA IC50 (μM) @ 10 μM ADP, human PRP, 10 μM ADP, AUC at 5 minute.
Test [2] has as its target cloned human P2Y1 receptors (Homo sapiens (Human), UniProt P47900). Put plainly: Binding Assay B - Scintillation Proximity Assay (SPA) for P2Y1 binding, [33P] 2MeS-ADP. Conditions: SPA, 0.3 nM [33P] 2MeS-ADP, Cheng-Prusoff; read-out: P2Y1 Ki (nM) using binding assay B. On the procedure:
Binding Assay B—Scintillation Proximity Assay (SPA) for P2Y1 Binding
A SPA membrane binding assay was used to identify inhibitors of [^33P] […] Reactions were allowed to proceed to completion at room temperature for 1 hour followed by centrifugation of the plate for 5 min. About 40 μL of the aqueous solution was aspirated. Plates were sealed and the [^33P]
For orientation: In a scintillation proximity assay essentially only radioactivity close to the scintillant gives light.

Structures are written as SMILES. Counter-ions that a name gives are not always drawn.

Chain of cloned human P2Y1 receptors (P47900 whole entry): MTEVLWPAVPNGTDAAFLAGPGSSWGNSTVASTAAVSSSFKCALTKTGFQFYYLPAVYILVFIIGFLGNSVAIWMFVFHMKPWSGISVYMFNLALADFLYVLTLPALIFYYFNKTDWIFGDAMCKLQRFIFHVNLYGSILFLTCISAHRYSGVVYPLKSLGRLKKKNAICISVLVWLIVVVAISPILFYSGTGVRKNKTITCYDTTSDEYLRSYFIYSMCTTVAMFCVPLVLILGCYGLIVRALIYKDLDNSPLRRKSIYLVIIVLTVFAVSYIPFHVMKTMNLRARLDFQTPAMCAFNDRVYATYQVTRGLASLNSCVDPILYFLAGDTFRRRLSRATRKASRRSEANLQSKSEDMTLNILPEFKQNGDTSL

In general, IC50 refers to the concentration needed to halve the response being measured. In general, Ki refers to a dissociation constant, usually derived from enzyme kinetics or from competition with a known ligand. As for `CC1(C)CN(c2ccccc2NC(=O)Nc2ccc(OC(F)(F)F)cc2)c2c(O)ccc(-c3cncc(F)c3)c21` [Example 117, 1-(2-(4-(5-Fluoropyridin-3-yl)-7-hydroxy-3,3-dimethylindolin-1-yl)phenyl)-3-(4-(trifluoromethoxy)phenyl) urea], the IC50 in test [1] is 0.51 µM. Also, in test [2], the Ki came to 36 nM.
In the same order, the values of `Cc1cc(-c2ccc(O)c3c2C(C)(C)CN3c2ccccc2NC(=O)Nc2ccc(OC(F)(F)F)cc2)cnc1F` [Example 119, 1-(2-(4-(6-Fluoro-5-methylpyridin-3-yl)-7-hydroxy-3,3-dimethylindolin-1-yl)phenyl)-3-(4-(trifluoromethoxy)phenyl) urea] are 0.47 µM and 3.3 nM.
In the same order, the values of `CC1(C)CN(c2ccccc2NC(=O)Nc2ccc(OC(F)(F)F)cc2)c2c(O)ccc(-c3ccc(C(F)(F)F)nc3)c21` [Example 120, 1-(2-(7-Hydroxy-3,3-dimethyl-4-(6-(trifluoromethyl)pyridin-3-yl)indolin-1-yl)phenyl)-3-(4-(trifluoromethoxy)phenyl)urea,TFA] are 0.14 µM and 7.9 nM.
The like results for `CC1(C)CN(c2ccccc2NC(=O)Nc2ccc(OC(F)(F)F)cc2)c2c(O)ccc(-c3ccc(Cl)s3)c21` [Example 121, 1-(2-(4-(5-Chlorothiophen-2-yl)-7-hydroxy-3,3-dimethylindolin-1-yl)phenyl)-3-(4-(trifluoromethoxy)phenyl)urea] were, in that order, 0.2 µM and 113 nM.
Consider `CC1(C)CN(c2ccccc2NC(=O)Nc2nc3ccc(Cl)cc3s2)c2c(O)ccc(-c3nc4ccc(F)cc4s3)c21` [Example 128, 1-(6-Chlorobenzo[d]thiazol-2-yl)-3-(2-(4-(6-fluorobenzo[d]thiazol-2-yl)-7-hydroxy-3,3-dimethylindolin-1-yl)phenyl)urea], for which the half-inhibitory concentration (IC50) in test [1] is 0.24 µM. Moreover, in test [2], the Ki amounted to 108 nM.
For `CC1(C)CN(c2ccccc2NC(=O)Nc2ccc(OC(F)(F)F)cc2)c2c(O)c(F)cc(-c3ccc(C(F)(F)F)cn3)c21` [Example 129, 1-(2-(6-Fluoro-7-hydroxy-3,3-dimethyl-4-(5-(trifluoromethyl)pyridin-2-yl)indolin-1-yl)phenyl)-3-(4-(trifluoromethoxy)phenyl)urea], the IC50 in test [1] is 0.71 µM. Moreover, the inhibition constant (Ki) in test [2] was found to be 15.3 nM.
The like results for `CC1(C)CN(c2ccccc2NC(=O)Nc2ccc(OC(F)(F)F)cc2)c2c(O)c(F)cc(-c3nc4ccc(Cl)cc4s3)c21` [Example 130, 1-(2-(4-(6-Chlorobenzo[d]thiazol-2-yl)-6-fluoro-7-hydroxy-3,3-dimethylindolin-1-yl)phenyl)-3-(4-(trifluoromethoxy)phenyl)urea] were, in that order, 1.8 µM and 93.5 nM.
In the same order, the values of `CC1(C)CN(c2ccccc2NC(=O)Nc2ccc(OC(F)(F)F)cc2)c2c(O)ccc(-c3cnc(Cl)cn3)c21` [Example 131, 1-(2-(4-(5-Chloropyrazin-2-yl)-7-hydroxy-3,3-dimethylindolin-1-yl)phenyl)-3-(4-(trifluoromethoxy)phenyl)urea] are 0.42 µM and 9.1 nM.
Consider `CC1(C)CN(c2ccccc2NC(=O)Nc2ccc(OC(F)(F)F)cc2)c2c(O)ccc(-c3cnccn3)c21` [Example 132, 1-(2-(7-Hydroxy-3,3-dimethyl-4-(pyrazin-2-yl)indolin-1-yl)phenyl)-3-(4-(trifluoromethoxy)phenyl)urea], for which, in test [1], the IC50 is 1.29 µM. In test [2], the Ki was 18.8 nM.
The like results for `CC1(C)CN(c2ccccc2NC(=O)Nc2ccc(OC(F)(F)F)cc2)c2c(O)ccc(-c3ncc(F)cn3)c21` [Example 133, 1-(2-(4-(5-Fluoropyrimidin-2-yl)-7-hydroxy-3,3-dimethylindolin-1-yl)phenyl)-3-(4-(trifluoromethoxy)phenyl)urea] were, in that order, 0.69 µM and 10.2 nM.
The like results for `CC1(C)CN(c2ccccc2NC(=O)Nc2nc3ccc(F)cc3s2)c2c(O)ccc(-c3nc4ccc(Cl)cc4o3)c21` [Example 134, 1-(2-(4-(6-Chlorobenzo[d]oxazol-2-yl)-7-hydroxy-3,3-dimethylindolin-1-yl)phenyl)-3-(6-fluorobenzo[d]thiazol-2-yl)urea] were, in that order, 0.19 µM and 73.8 nM.
In the same order, the values of `CC1(C)CN(c2ccccc2NC(=O)Nc2ccc(OC(F)(F)F)cc2)c2c(O)cc(F)c(-c3ccc(C(F)(F)F)nc3)c21` [Example 135, 1-(2-(5-Fluoro-7-hydroxy-3,3-dimethyl-4-(6-(trifluoromethyl)pyridin-3-yl)indolin-1-yl)phenyl)-3-(4-(trifluoromethoxy)phenyl)urea] are 0.15 µM and 8.7 nM.
For `CC1(C)CN(c2ccccc2NC(=O)Nc2ccc(OC(F)(F)F)cc2)c2c(O)cc(F)c(-c3nc4ccc(F)cc4s3)c21` [Example 144, 1-(2-(5-Fluoro-4-(6-fluorobenzo[d]thiazol-2-yl)-7-hydroxy-3,3-dimethylindolin-1-yl)phenyl)-3-(4-(trifluoromethoxy)phenyl)urea], the half-maximal inhibitory concentration (IC50) in test [1] worked out at 0.5 µM. The Ki in test [2] worked out at 10 nM.
In the same order, the values of `CC1(C)CN(c2ccccc2NC(=O)Nc2nc3ccc(F)cc3s2)c2c(O)cc(F)c(-c3nc4ccc(F)cc4s3)c21` [Example 146, 1-(2-(5-Fluoro-4-(6-fluorobenzo[d]thiazol-2-yl)-7-hydroxy-3,3-dimethylindolin-1-yl)phenyl)-3-(6-fluorobenzo[d]thiazol-2-yl)urea] are 0.3 µM and 47.2 nM.
In the same order, the values of `CC1(C)CN(c2ccccc2NC(=O)Nc2csc(Cl)n2)c2c(O)ccc(-c3nc4cc(Cl)ccc4s3)c21` [Example 147, 1-(2-(4-(5-Chlorobenzo[d]thiazol-2-yl)-7-hydroxy-3,3-dimethylindolin-1-yl)phenyl)-3-(2-chlorothiazol-4-yl)urea] are 0.77 µM and 70.8 nM.
In the same order, the values of `CC1(C)CN(c2ccccc2NC(=O)Nc2ccc(OC(F)(F)F)cc2)c2c(O)cc(F)c(-c3nc4ccc(Cl)cc4s3)c21` [Example 148, 1-(2-(4-(6-Chlorobenzo[d]thiazol-2-yl)-5-fluoro-7-hydroxy-3,3-dimethylindolin-1-yl)phenyl)-3-(4-(trifluoromethoxy)phenyl)urea] are 0.68 µM and 83 nM.
Consider `CC1(C)CN(c2ccccc2NC(=O)Nc2ccc(OC(F)(F)F)cc2)c2c(O)cc(F)c(-c3ccc(C(F)(F)F)cn3)c21` [Example 149, 1-(2-(5-Fluoro-7-hydroxy-3,3-dimethyl-4-(5-(trifluoromethyl)pyridin-2-yl)indolin-1-yl)phenyl)-3-(4-(trifluoromethoxy)phenyl)urea], for which, in test [1], the IC50 worked out at 0.11 µM. For the same molecule, in test [2], the Ki is 13 nM.
The like results for `CC1(C)CN(c2ccccc2NC(=O)Nc2csc(Cl)n2)c2c(O)cc(F)c(-c3nc4ccc(F)cc4s3)c21` [Example 150, 1-(2-Chlorothiazol-4-yl)-3-(2-(5-fluoro-4-(6-fluorobenzo[d]thiazol-2-yl)-7-hydroxy-3,3-dimethylindolin-1-yl)phenyl)urea] were, in that order, 0.41 µM and 32.7 nM.
In the same order, the values of `CC1(C)CN(c2ccccc2NC(=O)Nc2ccc(OC(F)(F)F)cc2)c2c(O)cc(F)c(-c3nc4cc(F)ccc4s3)c21` [Example 151, 1-(2-(5-Fluoro-4-(5-fluorobenzo[d]thiazol-2-yl)-7-hydroxy-3,3-dimethylindolin-1-yl)phenyl)-3-(4-(trifluoromethoxy)phenyl)urea] are 0.48 µM and 24.1 nM.
The like results for `CC1(C)CN(c2ccccc2NC(=O)Nc2nc3ccc(F)cc3s2)c2c(O)cc(F)c(-c3nc4cc(F)ccc4s3)c21` [Example 152, 1-(2-(5-Fluoro-4-(5-fluorobenzo[d]thiazol-2-yl)-7-hydroxy-3,3-dimethylindolin-1-yl)phenyl)-3-(6-fluorobenzo[d]thiazol-2-yl)urea] were, in that order, 0.3 µM and 25.4 nM.
Consider `CC1(C)CN(c2ccccc2NC(=O)Nc2nc3ccc(Cl)nc3s2)c2c(O)cc(F)c(-c3nc4cc(F)ccc4s3)c21` [Example 153, 1-(5-Chlorothiazolo[5,4-b]pyridin-2-yl)-3-(2-(5-fluoro-4-(5-fluorobenzo[d]thiazol-2-yl)-7-hydroxy-3,3-dimethylindolin-1-yl)phenyl)urea], for which the IC50 in test [1] was 0.23 µM. For the same molecule, the inhibition constant (Ki) in test [2] came to 15.4 nM.
The like results for `CC1(C)CN(c2ccccc2NC(=O)Nc2nc3ccc(Cl)cc3s2)c2c(O)cc(F)c(-c3nc4cc(F)ccc4s3)c21` [Example 154, 1-(6-Chlorobenzo[d]thiazol-2-yl)-3-(2-(5-fluoro-4-(5-fluorobenzo[d]thiazol-2-yl)-7-hydroxy-3,3-dimethylindolin-1-yl)phenyl)urea] were, in that order, 0.35 µM and 22.5 nM.
In the same order, the values of `CC1(C)CN(c2ccccc2NC(=O)Nc2nc3ccc(F)cc3s2)c2c(O)cc(F)c(-c3nc4ccc(Cl)cc4s3)c21` [Example 155, 1-(2-(4-(6-Chlorobenzo[d]thiazol-2-yl)-5-fluoro-7-hydroxy-3,3-dimethylindolin-1-yl)phenyl)-3-(6-fluorobenzo[d]thiazol-2-yl)urea] are 0.6 µM and 38 nM.
In the same order, the values of `CC1(C)CN(c2ccccc2NC(=O)Nc2nc3ccc(F)nc3s2)c2c(O)cc(F)c(-c3nc4cc(Cl)ccc4s3)c21` [Example 157, 1-(2-(4-(5-Chlorobenzo[d]thiazol-2-yl)-5-fluoro-7-hydroxy-3,3-dimethylindolin-1-yl)phenyl)-3-(5-fluorothiazolo[5,4-b]pyridin-2-yl)urea] are 0.28 µM and 18.7 nM.
